{"source": "paper PMC8557901", "about": "(Microbiology Spectrum, 2021)", "key": {"[1]": {"assay": "MTT cell viability assay, simian primary hepatocytes", "assay_type": "cell-based", "details": "Macaca fascicularis (cynomolgus monkey), primary hepatocytes (cryopreserved)", "source_text": "Primary human hepatocytes were isolated from liver segments obtained from adult patients undergoing partial hepatectomy (Service de Chirurgie Digestive, Hépato-Bilio Pancréatique, Hôpital Pitié Salpêtrière, Paris, France). Primary simian hepatocytes were isolated from liver segments collected from healthy Macaca fascicularis monkeys from CEA, Fontenay aux Roses, France. All hepatocytes were obtained using collagenase perfusion as previously described ([40]). Simian hepatocytes were immediately cryopreserved with a Nicool-Freezal controlled rate freezer (Air Liquide Santé, Marne la Vallée, France) and then used when needed after fast thawing at 37°C. Primary murine hepatocytes were isolated from liver segments collected from BALB/c mice. Human and murine hepatocytes were used directly after their isolation. Cells were seeded in 96-well plates (Falcon; Becton Dickinson Labware Europe, France) coated with collagen I (BD Bioscience, USA) at a density of 80,000 cells per well. […]\nThe toxicity of M1 toward primary hepatocytes and HepG2-CD81 cells was evaluated through the MTT {[3-(4,5-dimethyl-2-thiazolyl)-2,5-diphenyl-2H-tetrazolium bromide]} test ([42]). […] Then, MTT was replaced by a mixture of DMSO-ethanol (1:1) to dissolve formazan crystals and the absorbance was read at 540 nm on a FlexStation plate reader."}, "[2]": {"assay": "Cytotoxicity on the MDCK renal cell line (MTT)", "assay_type": "cell-based, canine", "details": "dog, MDCK cells", "experimental": "MDCK cell line (Madin-Darby Canine Kidney cells) was maintained at 37 °C, 5% CO2 with 90% humidity in DMEM supplemented with 5% fetal bovine serum, 1% L-glutamine (200 mM), penicillin (100 U/mL) and streptomycin (100 μg/mL) (complete medium). The evaluation of Gamhepathiopine cytotoxicity on this cell line was performed according to the method of Mosman with slight modifications. Briefly, 3.10^4 cells in 100 μL of complete medium were inoculated into each well of 96-well plates and incubated at 37 °C in a humidified 5% CO2. After 24 h incubation, to obtain adherent cells, 100 μL of medium with various concentrations of Gamhepathipoine dissolved in DMSO were added and refreshed on a daily basis for 72 h at 37 °C. Each sample was tested on 4 technical replicates. The MTT solution (100µL/well, 0.5 mg/mL in medium without FBS) was then added to each well. Cells were incubated for 4 h at 37 °C. The MTT solution was then removed and a mixture of DMSO/Ethanol (1:1; 100 μL/well) was added to dissolve the resulting blue formazan crystals. The absorbance was measured at 540 nm on a Flex Station Microplate Reader."}, "[3]": {"system": "P. falciparum liver-stage parasites in human primary hepatocytes", "assay": "In vitro liver-stage development, P. falciparum in human primary hepatocytes", "assay_type": "cell-based, Plasmodium falciparum", "source_text": "Primary human hepatocytes were isolated from liver segments obtained from adult patients undergoing partial hepatectomy (Service de Chirurgie Digestive, Hépato-Bilio Pancréatique, Hôpital Pitié Salpêtrière, Paris, France). Primary simian hepatocytes were isolated from liver segments collected from healthy Macaca fascicularis monkeys from CEA, Fontenay aux Roses, France. All hepatocytes were obtained using collagenase perfusion as previously described ([40]). […] Primary murine hepatocytes were isolated from liver segments collected from BALB/c mice. Human and murine hepatocytes were used directly after their isolation. Cells were seeded in 96-well plates (Falcon; Becton Dickinson Labware Europe, France) coated with collagen I (BD Bioscience, USA) at a density of 80,000 cells per well. […] For human hepatocytes, the complete medium was supplemented with 2% dimethyl sulfoxide (DMSO; Sigma-Aldrich, USA) before infection to preserve their differentiation.\nOn the day of infection, 3 · 10^4 sporozoites of P. falciparum, P. yoelii, and P. cynomolgi were added to their respective host cell cultures (human, murine, and simian). The infected culture plates were centrifuged for 10 min at 900 × g, allowing fast parasite sedimentation, and further incubated with serial dilutions of M1. Culture medium containing the appropriate drug concentration was refreshed daily, and cells were fixed at 48 h postinfection (p.i.) for infections with P. yoelii, 6 days p.i. for P. falciparum, or 8 days p.i. for P. cynomolgi. For the in vitro sporozoite invasion experiments, P. falciparum sporozoites were preincubated with 1, 10, and 100 μM M1 for 1 h at room temperature before hepatocyte infections. Three hours later, after sporozoite penetration into hepatocytes, cultures were washed and then further incubated with or without the presence of the drug during 6 days. DMSO was used as a negative control.\nThe number, size, and shape of the parasites were determined using a CellInsight high-content screening platform equipped with Studio HCS software (ThermoFisher Scientific). […] Host cell and parasite nuclei were labeled with DAPI (4′,6-diamidino-2-phenylindole). […] The custom script used for counting and measuring parasites first required identification of the objects based on a fluorescence intensity threshold. The object identity was then further validated based on size and morphological (shape) criteria. The presence of DAPI-associated fluorescence in the selected objects allowed their final selection and the rejection of false positives. […] The parasitic size reduction was calculated on the average object area using the total surface area of each selected object (μm^2)."}}, "data": [{"smiles": "Cc1ccc(-c2cc3nc(NC(C)(C)C)[nH]c(=O)c3s2)cc1", "note": "[Metabolite M1, 2-(tert-Butylamino)-6-(p-tolyl)thieno[3,2-d]pyrimidin-4(3H)-one]", "values": [{"measurement": "CC50 at 8 days", "setting": "[1]", "result": "> 60", "unit": "µM"}, {"measurement": "CC50 at 72 h", "setting": "[2]", "result": 39.5, "unit": "µM"}, {"measurement": "concentration from which liver-stage development was fully inhibited", "setting": "[3]; P. falciparum in human hepatocytes", "result": 14, "unit": "µM"}, {"measurement": "EC50", "setting": "[3]; Plasmodium falciparum, Hepatocyte, P. falciparum in human primary hepatocytes (HH), mean ± SEM of triplicate experiments, read-out: EC50 against liver-stage parasites", "result": "0.45 ± 0.15", "unit": "µM"}, {"measurement": "SI (selectivity index)", "setting": "[3]; hepatocyte CC50/EC50, P. falciparum (HH)", "result": ">133"}, {"measurement": "Size reduction at 10 μM (%)", "setting": "[3]; parasite (schizont) size, 10 μM, P. falciparum (HH)", "result": 80, "unit": "%"}]}]}
